Test [1] deals with BTBR mice. In words: Social approach test (SAT), sociability (novel mouse vs novel object). The test is classed as in vivo. The note with it: ARP 1 mg/kg i.p. chronic. The protocol: (§1) All the mice were randomly divided into nine groups of 5–7 mice each. The mice were injected intraperitonially once daily for 21 days with different doses of ST2223 (2.5, 5, and 10 mg/kg, i.p.), ARP 1 mg/kg or vehicle (1% DMSO in 0.9% normal saline). Group I, B6 mice were injected with vehicle served as control. Group II, BTBR mice were treated with vehicle. Groups III–V, BTBR mice received i.p. injections of different doses of ST2223 (2.5, 5, and 10 mg/kg, i.p.), respectively. Group VI, BTBR mice were injected with ARP (1 mg/kg, i.p.). For abrogation studies, Group VII, BTBR mice were treated with ST2223 (5 mg/kg, i.p.) along with RAM (10 mg/kg, i.p.). Group VIII, B6 mice were co-injected with vehicle and RAM (10 mg/kg, i.p). All treatments and vehicle (VEH) were administered 30–45 min before each behavioral test. The doses of these drugs were selected based on previous reports. Behavioral testing was performed between 9:00 am and 3:00 pm in an order randomized by group and in the following sequence: social approach test (SAT) and open field locomotor test (OFL). The chronic treatment started one week before the behavioral test and was continued for a total of 21 days as described above (Figure 7). Following behavioral tests, i.e., on day 21 of systemic treatment, five of the animals were sacrificed. The animals were deeply anesthetized with pentobarbital (40 mg/kg, i.p., body weight). To wash out the blood, cardiac perfusion was carried out using 0.01 M phosphate-buffered saline (PBS) at pH 7.4. The brains were quickly removed and placed on an ice plate, where the cerebellum, hippocampus, prefrontal cortex, and striatum were excised from the brain and snap-frozen in liquid nitrogen for later LC-MS/MS analysis.
The social approach test (SAT) was performed using an automated three-chamber device (EthoVision® Software, Noldus, The Netherlands) as previously described. The transparent polycarbonate chamber is rectangular and is composed of three interconnected partitions (homemade), which are separated by two sliding doors. In brief, after 10 min of habituation, the study mouse was placed in the central chamber with the doors opened, and the mouse was given the choice to interact with either an empty plastic cup located in one side chamber, referred to as a novel object (NO), or a similar plastic cup with an unfamiliar mouse inside it located in the opposite chamber, referred to as a novel mouse (NM), which was matched in age, sex, and strain with test mouse. To avoid innate side preferences, the plastic cup for NO and NM were randomly placed in either chamber and the placement was changed between studies and between mice. For 10 min, the test mouse was allowed to explore all three chambers and cups, and the time spent interacting with NO and NM (sniffing) was automatically recorded by EthoVision® Software. Immediately after this session, a novel mouse is kept in the empty cup and is referred to as novel mouse (NM), and the mouse in the other cup from the earlier session is referred to as familiar mouse (FM). The study mouse is allowed to explore the three chambers for 10 min, and the time spent for interacting with both mice was automatically recorded, to assess social novelty preference. Eight groups of 7 mice/group were used for the SAT. To allow the direct comparison of social behavior between the treated groups, the sociability index (SI) and social novelty index (SNI) were calculated with the following formula, as previously described: SI=(Time exploring NM−Time exploring NO)/(Time exploring NM+Time exploring NO) SNI=(Time exploring NM−Time exploring FM)/(Time exploring NM+Time exploring FM)

Test [2] concerns BTBR mice. The test can be described thus: Social approach test (SAT), social novelty preference (novel mouse vs familiar mouse). The test is classed as in vivo. The settings on record: ARP 1 mg/kg i.p. chronic, p < 0.001. The protocol: as §1
The social approach test (SAT) was performed using an automated three-chamber device (EthoVision® Software, Noldus, The Netherlands) as previously described. The transparent polycarbonate chamber is rectangular and is composed of three interconnected partitions (homemade), which are separated by two sliding doors. […] For 10 min, the test mouse was allowed to explore all three chambers and cups, and the time spent interacting with NO and NM (sniffing) was automatically recorded by EthoVision® Software. […] The study mouse is allowed to explore the three chambers for 10 min, and the time spent for interacting with both mice was automatically recorded, to assess social novelty preference. […] To allow the direct comparison of social behavior between the treated groups, the sociability index (SI) and social novelty index (SNI) were calculated with the following formula, as previously described: SI=(Time exploring NM−Time exploring NO)/(Time exploring NM+Time exploring NO) SNI=(Time exploring NM−Time exploring FM)/(Time exploring NM+Time exploring FM)

The subject of test [3] is BTBR mice. The test can be described thus: Open field locomotor test (OFL), anxiety-like behavior and locomotion. The test is classed as in vivo. The settings on record: ARP 1 mg/kg i.p. chronic. The method, then:
as §1
Open field locomotor test (OFL) systematically assesses exploratory activity based on subjecting an animal to an unfamiliar environment whose escape is prevented by surrounding walls. It is a model of anxiety-like behavior, suitable for assessing motor activity as a reaction to an unknown environment, i.e., locomotion motivated by exploration. Both general locomotor activity and anxiety-related behaviors were assessed as the mice were placed individually inside an open field arena (45 × 45 × 30 cm) and were allowed to move freely for 10 min [80]. Mice were introduced into the center area of the arena (23 × 23 cm) and given 5 min habituation before actual behaviors recording. The overall distance moved inside the complete arena and time spent in the center and periphery was recorded for 10 min using CCD camera-assisted motion tracking equipment and software program (EthoVision 3.1, Noldus Information Technology, The Netherlands). Measurements obtained included total distance traveled and center and periphery time spent for […]. After each testing sessions, chambers we cleaned with 70% ethanol, and enough time was allowed for ethanol evaporation and odor dissipation. When evaluating the results, more time spent in the center indicated low levels of anxiety-like behaviors and total distance travelled represented locomotor activity.

In test [4] the test system is histamine levels in BTBR mice brain. In words: Histamine levels by LC-MS/MS in brain regions. The test is classed as in vivo. Set-up: key to Histamine level: ↔: No significant alterations; ↑: significant increase; ↑↑: additional significant increase vs. ST-2223-treated mice; ↓: significant decrease. The note with it: ARP 1 mg/kg i.p. chronic, vs VEH-treated BTBR mice. The protocol:
as §1
(§2) Perfusion was done on anesthetized animals using 1X PBS as described previously. Different regions of the brain were snap frozen. Frozen tissues were then weighed and homogenized in a 10-fold volume of acetonitrile. For 50mg of tissue, 500 µL of acetonitrile and Internal standard mix were added and homogenized. Homogenates were centrifuged at 15,000 rcf for 15 min at 4 °C. Tissue levels of dopamine, acetylcholine, histamine, and their metabolites were assessed using LC-MS/MS. LC-MS/MS analysis was conducted utilizing Waters BEH C18 COLUMN (2.1 × 100 mm, 1.7 µm) using Waters Acquity UPLC Binary Solvent Manager and FTN Sample Manager. The system was run in gradient mode with mobile phase A consisting of LC-MS GRADE WATER + 0.1% FORMIC ACID and mobile phase B consisting of 100% ACETONITRILE. Mobile phase was duly filtered through 0.2 µm filter and degassed ultrasonically for 15 min prior to use. Separations were performed at room temperature with 0.3 mL/min flow rate gradient starting with 90% of A for up to 0.5 min. Then, % of A was decreased gradually until it reached 20% at 2.5 min after which at 3 min %A was brought back to the initial condition and left for equilibration for 2 more minutes before the next injection (total 5 min run time). The injection volume was kept at 1 µL. Mass spectrometric detection was performed in multiple reaction monitoring (MRM) mode with positive electrospray ionization (ESI+) on Xevo TQS mass spectrometer (Waters, Milford, MA) equipped with an electrospray ionization (ESI) source and triple quadrupole mass analyzer. MRM transitions and instrument parameters were set by tuning the instrument by infusing each analyte. MRM transitions taken for quantification were 146.2 > 87.1 for Acetylcholine, 112.2 > 95.2 for Histamine, 154.1 > 137.2 for Dopamine, 150.2 > 91.3 for Acetylcholine D4, and […] > 99.3 for Histamine D4. Capillary Voltage, Source Offset, Source Temperature, De solvation Temperature, Cone Gas Flow, De solvation Gas Flow, Collision Gas Flow, Nebulizer Gas Flow were set as 3.0 (kV), 60.0 (V), 150 (°C), 550 (°C), 150 (L/Hr), 1000 (L/Hr), 0.13 (mL/min), and 7 (Bar), correspondingly. […]

Test [5] deals with dopamine levels in BTBR mice brain. In words: Dopamine levels by LC-MS/MS in brain regions. The test is classed as in vivo. Set-up: key to Dopamine level: ↔: No significant alterations; ↑: significant increase; ↑↑: additional significant increase vs. ST-2223-treated mice; ↓: significant decrease. The note with it: ARP 1 mg/kg i.p. chronic, vs VEH-treated BTBR mice. The protocol: as §1, §2

In test [6] the test system is acetylcholine levels in BTBR mice brain. The test can be described thus: Acetylcholine levels by LC-MS/MS in brain regions. The test is classed as in vivo. The note with it: for Acetylcholine level: ARP 1 mg/kg i.p. chronic, vs VEH-treated BTBR mice. Also on record: key to Acetylcholine level: ↔: No significant alterations; ↑: significant increase; ↑↑: additional significant increase vs. ST-2223-treated mice; ↓: significant decrease. The protocol:
as §1, §2

Test [7] deals with prefrontal cortex of B6 mice. Set-up: method as in PMID 16023290. The settings on record: 0.3 mg/kg of ARP; cited from earlier work.

As to `O=C1CCc2ccc(OCCCCN3CCN(c4cccc(Cl)c4Cl)CC3)cc2N1` [ARP, aripiprazole, reference compound], the “sociability, time exploring NM compared to NO” value in the test with BTBR mice [1] is “markedly increased sociability”. Further, the “exploring time spent with NM vs VEH-treated BTBR mice” value in the test on BTBR mice [1] (p < 0.001) was “significantly improved exploring time spent with NM”. In addition, the “preference to novel mouse (NM) over familiar mouse (FM) vs VEH-treated BTBR mice” value in the test with BTBR mice [2] was “enhanced preference to stranger NM over FM”. Besides, the “abnormal anxiety observed by BTBR mice” value in the test with BTBR mice [3] is given as “failed to restore the abnormal anxiety”. Besides, the “time spent in the periphery” value with BTBR mice [3] is “no group differences”. The “total distance travelled vs VEH-treated BTBR mice” value in the test with BTBR mice [3] (p < 0.01) was “significantly decreased the total distance travelled”. The “levels of histamine in brain regions” value in test [4] (p < 0.05) was “increased the levels of histamine in the cerebellum, striatum, and hippocampus”. Further, the values for the Histamine level entry in test [4] (Cerebellum), in test [4] (Hippocampus) and in test [4] (Prefrontal cortex) were “↑ ^b”, “↑ ^b” and “↔”, respectively. Also, the figures for the Dopamine level entry in test [5] (Cerebellum), in test [5] (Hippocampus) and in test [5] (Prefrontal cortex) were “↓^b”, “↓^b” and “↔”, respectively. For the same molecule, the “acetylcholine levels” value in test [6] (ARP 1 mg/kg chronic, p < 0.05) was “signified increase in the levels of acetylcholine in the prefrontal cortex, cerebellum, and striatum tissues”. Also, the Acetylcholine level entry in test [6] (Cerebellum) is on record as “↑ ^b”; in test [6] (Hippocampus), “↔”; in test [6] (Prefrontal cortex), “↑ ^b”; in test [6] (Striatum), “↑ ^b”. The “DA levels in dialysate” value in test [7] is on record as “significant increase of DA levels in dialysate”.

These data come from publication PMC9414676, “Experimental Studies Indicate That ST-2223, the Antagonist of Histamine H3 and Dopamine D2/D3 Receptors, Restores Social Deficits and Neurotransmission Dysregulation in Mouse Model of Autism” (Pharmaceuticals, 2022).
